Marks after values point to notes of the source that are not given here. Blank lines part the entries; values can stand above or below the molecule they belong to.
Assays:
Format in all cases: in vivo, rat
male Wistar rats [1] = test: Metabolic syndrome model in rats (cafeteria diet)
Description: Metabolic syndrome was simulated in male Wistar rats (260-280 g) by keeping animals on a high-fat diet (“cafeteria diet”) for 12 weeks. The “cafeteria diet” was balanced according to Current Protocols in Pharmacology [Current Protocols in Pharmacology (2005) Animal Models of Disease//Contributed by Petter Hedlund, Kenshi Matsumoto, and Karl-Erik Andersson]. The diet contained 25-35% of fats and 25-30% of digestible carbohydrates in addition to the standard diet of rodents. Treamid was administered at a dose of 0.5 mg/kg intragastrically once daily, every day from Week 7 to Week 11 of the diet. Reference drug Metformin was administered at a dose of 200 mg/kg intragastrically according to the same regimen.
The development of pathology and a therapeutic effect of Treamid were estimated by the following parameters: blood biochemical parameters (glucose, cholesterol, triglycerides (TG), HDL, LDL, atherogenicity index), glucose tolerance test, visceral fat weight, total number and percentage of motile sperm forms.
Glucose was determined with an OneNouch Select glucometer (Switzerland).
The levels of triglycerides, TCh and HDL were determined by using a diagnostic kit (Olvex Diagnosticum, Russia).
The level of LDL was determined by the formula 2. LDL=TCh−(HDL+TG/2.2) (1),
The atherogenicity index (AI) was calculated by the formula 3. AI=(TCh−HDL)/HDL (2),
The atherogenicity index was calculated for each animal individually, and then the arithmetic mean value of the group was calculated.
For the analysis of sperm, the animals were anesthetized with intraperitoneal injection of a mixture of Zolletil and Xyla (0.2 ml of Zoletil+0.8 ml Xyla) in a volume of 70 μl/100 g of weight. Epididymis was isolated. The epididymis head was cut off from the tail, weighed, 5 incisions were made (to improve the sperm yield), and placed in a tube containing 10 ml of phosphate buffered saline heated to 37° C. The tube was held at 37° C. for 10 minutes. Then, the tube was shaken on a shaker, 20 μl of the liquid was taken, applied to a glass slide heated to 37° C., and the number of motile sperm cells was assessed under a microscope. The calculation was performed up to 100 sperm cells.
The total number of sperm cells in a test tube with epididymis was calculated as follows: 20 μl of the liquid was taken after shaking and added to a tube containing 400 μl of physiological saline. After shaking the tubes, their contents (20 μl) were taken out and introduced into Goryaev chamber. The number of sperm cells was counted in 100 large squares. The number of sperm cells in the head of epididymis was calculated by the formula: Number of sperm cells=number of sperm cells in 100 large squares of Goryaev chamber*0.525(factor from the calculation of the dilution and the volume of Goryaev chamber)/weight of the epididymis head.

male rats = conditions: rat, in vivo
Experimental: The latter was simulated by a single injection of cytostatic drug Paclitaxel (Mitotax, Dr. Reddy's, India) to male rats (3 months of age). The choice of the drug was due to the fact that it is one of the medications that damage the precursors of spermatogenesis—stem cells.
Paclitaxel was administered to the animals of the control and test groups once intravenously at the maximum tolerated dose of 7.6 mg/kg. Treamid was administered to the animals of the experimental groups intragastrically at a dose of 5 mg/kg in the form of a suspension in 2% starch mucus for 15 days a month after the administration of Paclitaxel. The control animals received an equivalent volume of the solvent (2% starch mucus), instead of the test compound.
The colony-stimulating activity of the cells of the microenvironment of spermatogenic tissue (production of humoral regulators of spermatogenesis by Sertoli cells) was determined as follows. The above-described procedure was used to prepare a testis homogenate from which an adherent fraction of cells was isolated. The adherent cells were cultured for 24 hours in complete culture medium at 37° C., 5% CO2 and 100% air humidity. A day later, the supernatant was collected, which was stored at a temperature of […]. The level of humoral factors of spermatogenesis in the supernatant was tested by the test system of CFU-Sp of the testes of intact rats. […]

male Wistar rats [2] = test: Pair-test of sexual behavior, seasonal suppression of copulatory activity
Experimental: Seasonal suppression of reproductive activity was simulated by carrying out the experiment in the winter period (end of December). As a background group, intact animals (3 months of age) were tested in June.
The experiments were carried out on 27 male Wistar rats of reproductive age (3 months). Treamid at a dose of 5 mg/kg and reference drug Sildenafil (at a dose of 3 mg/kg) were administered intragastrically […], once daily for 15 days. The sexual activity was estimated by the pair-test of sexual behavior. The test was carried out twice: before administration and one hour after the last administration of Treamid. The rats of the control groups receiving the solvent were tested at the same time as the animals of the experimental groups.
The experiment also comprised the use of female rats in the estrus stage caused by a preliminary 4-fold injection of the Synestrel. The effectiveness of Treamid was estimated by the following indices: latency until the first mating attempt (LFM), the number of mating attempts (MN), and the number of ejaculations (EN). The obtained data were compared with those of the same animals before the administration of the tested compound and with the data of the control group (the second test).

Wistar rats = test: Pair-test of sexual behavior, rats of late reproductive (14 months) and presenile (19 months) age; conditions: 14-month rats
Experimental: (§1) Erectile dysfunction was simulated by using animals of late and senile reproductive age (14-19 months). Suppression of sexual motivation was simulated by using animals of late reproductive age (14 months).
Experiments on studying the effect of Treamid on copulatory activity were carried out on 76 Wistar rats (14 months and 19 months of age). Treamid was administered intragastrically for 14 days at a dose of 5 mg/kg. Reference drug Sildenafil (100 mg, PFIZER PGM, France) was also administered intragastrically, which corresponded to clinical use, at a dose of 3 mg/kg twice a week. The sexual activity was estimated by the pair-test of sexual behavior. For this purpose female rats in the estrus stage caused by a preliminary 4-fold injection of the Synestrel were involved in the experiment. The effectiveness of Treamid was estimated by the following indices: latency until the first mating attempt (LFM), the number of mating attempts (MN), and the number of ejaculations (EN). The obtained data were compared with those of the same animals before the administration of Treamid (the first test) and with the data in the control group (the second test).

male Wistar rats [3] = test: Sexual incentive motivation test, rats of late reproductive age; conditions: 14-month rats
Experimental: as §1
Experiments on studying the effect of Treamid on sexual motivation were carried out on 40 male Wistar rats (14 months of age). A model for a targeted search for novel agents for the therapy of this pathology was used as an experimental model of sexual incentive motivation in rats [Xi Chu, Ekaterina S. Zhavbert, Julia L. Dugina, Irina A. Kheyfets, Svetlana A. Sergeeva, Oleg I. Epstein, Anders Agmo Sindenafil and a compound stimulating endothelial NO synthase modity sexual incentive motivation and copulatory behavior in male wistar and fisher 344//J Sex Med.—2008.—5.—P. 2085-2009]. This model is based on the fact that rats are social animals and seek not only sexual, but also social contacts. The assessment of sexual motivation involves determining the time spent near a sexual stimulus and the score of preference in animals without direct contact with “social” and “sexual” stimuli. The sexual stimulus was a female rat in estrus stage, and the social stimulus was a male rat.

[4] = Treamid 0.5 mg/kg, Metformin 200 mg/kg intragastrically Week 7-11 of high-fat diet
[5] = high-fat diet for 12 weeks, Treamid 0.5 mg/kg, Metformin 200 mg/kg
[6] = high-fat diet, Treamid 0.5 mg/kg, Metformin 200 mg/kg
[7] = first test, before administration, winter period
[8] = second test, one hour after last administration, Treamid 5.0 mg/kg, Sildenafil 3 mg/kg intragastrically, 15 days
[9] = First test, before administration of drugs
[10] = Second test, after 14-day administration course, Treamid 5 mg/kg, Sildenafil 3 mg/kg
[11] = Second test, after administration of the test compound, Treamid 5 mg/kg, Sildenafil 3 mg/kg, 14 days
[12] = first test, before administration

Compound: CN(C)C(=N)N=C(N)N [Metformin, reference compound]
Glucose level in the blood of male rats, mmol/L (male Wistar rats [1]; 3 weeks after the drug administration, Treamid 0.5 mg/kg, Metformin 200 mg/kg): 6.9 ± 0.3*& mmol/L | Glucose level in the blood of male rats, mmol/L (male Wistar rats [1]; 5 weeks after the drug administration, Treamid 0.5 mg/kg, Metformin 200 mg/kg): 8.0 ± 0.2*& mmol/L | Relative weight of visceral fat, Fat near the intestine (male Wistar rats [1]; [4]): 1.07 ± 0.08 % based on body weight | Relative weight of visceral fat, Fat near the kidneys (male Wistar rats [1]; [4]): 0.52 ± 0.05& % based on body weight | Relative weight of visceral fat, Fat near the testes (male Wistar rats [1]; [4]): 0.98 ± 0.12 % based on body weight | Relative weight of visceral fat, Total fat (male Wistar rats [1]; [4]): 2.57 % based on body weight | Glucose level in the blood of male rats (male Wistar rats [1]; before administration of drugs (Week 6 of diet)): 6.2 ± 0.1 mmol/L | Atherogenicity index (male Wistar rats [1]; [5]): 0.6 ± 0.1& | HDL, mM/l (male Wistar rats [1]; [5]): 1.8 ± 0& mM/l | LDL, mM/l (male Wistar rats [1]; [5]): 0.7 ± 0.3& mM/l | Total cholesterol, mM/l (male Wistar rats [1]; [5]): 2.8 ± 0.3 mM/l | Triglycerides, mM/l (male Wistar rats [1]; [5]): 0.7 ± 0.1& mM/l | Percentage of motile sperm forms (male Wistar rats [1]; [6]): 24.43 ± 3.99 % | Total number of sperm cells (male Wistar rats [1]; [6]): 276.6 ± 44.6& | Glucose level in the blood of male rats, mmol/L (male Wistar rats [1]; one week after the drug withdrawal, Treamid 0.5 mg/kg, Metformin 200 mg/kg): 7.8 ± 0.6& mmol/L | increase of the percentage of motile sperm forms (male Wistar rats [1]; vs. high-fat diet control): did not affect | increase of the total number of sperm cells (male Wistar rats [1]; vs. high-fat diet control): 1.8 times

colony stimulating activity of conditioned media of testis cells, CFU-Sp, per 2 × 10^5 (M; SD, n = 10) (male rats): 3.0; 0.53* per 2 × 10^5
Compound: CC(=O)O[C@H]1C(=O)[C@@]2(C)[C@H]([C@H](OC(=O)c3ccccc3)[C@]3(O)C[C@H](OC(=O)[C@H](O)[C@@H](NC(=O)c4ccccc4)c4ccccc4)C(C)=C1C3(C)C)[C@]1(OC(C)=O)CO[C@@H]1C[C@@H]2O [Paclitaxel, reference compound]

Compound: CCCc1nn(C)c2c(=O)[nH]c(-c3cc(S(=O)(=O)N4CCN(C)CC4)ccc3OCC)nc12 [Sildenafil, reference compound]
effect on sexual behavior under seasonal suppression (male Wistar rats [2]; Sildenafil 3 mg/kg): did not have a significant effect | LFM (male Wistar rats [2]; [7]): 473.00 ± 137.58 s | the number of ejaculations, % (male Wistar rats [2]; [7]): 0% | the number of mounts, abs. (male Wistar rats [2]; [7]): 3.33 ± 1.27 abs. | LFM (male Wistar rats [2]; [8]): 308.22 ± 117.73 s | the number of ejaculations, % (male Wistar rats [2]; [8]): 0% | the number of mounts, abs. (male Wistar rats [2]; [8]): 5.67 ± 1.76 abs. | EN (the number of ejaculations) (Wistar rats; [9]): 0.00 ± 0.00 | LFM (latency until the first mount) (Wistar rats; [9]): 610.08 ± 88.34 | MN (the number of mounts) (Wistar rats; [9]): 1.58 ± 0.56 | EN (the number of ejaculations) (Wistar rats; [10]): 0.00 ± 0.00 | MN (the number of mounts) (Wistar rats; [10]): 6.27 ± 1.27⋄# | LFM (latency until the first mount) (Wistar rats; Second test, after 14-day administration course, Treamid 5 mg/kg, Sildenafil 3 mg/kg intragastrically): 171.09 ± 78.08⋄* | A, sec (time spent in the sexual stimulus zone) (male Wistar rats [3]; [11]): 143.18 ± 48.64 s | PS, s. u. (preference score) (male Wistar rats [3]; [11]): 0.41 ± 0.12 s. u. | effect on sexual motivation (male Wistar rats [3]; Treamid 5 mg/kg, Sildenafil 3 mg/kg): had no effect | A, sec (time spent in the sexual stimulus zone) (male Wistar rats [3]; [12]): 166.83 ± 26.27 s | B, sec (time spent in the social stimulus zone) (male Wistar rats [3]; [12]): 113.58 ± 22.60 s | PS, s. u. (preference score) (male Wistar rats [3]; [12]): 0.59 ± 0.06 s. u.

— patent US10076511B2, “Bisamide derivative of dicarboxylic acid as an agent for stimulating tissue regeneration and recovery of diminished tissue function” (TREAMID GmbH, priority 2015, dated 2018)
